Test results published in patent US20260297029A1, “ALKOXY AND CARBAMOYL QUATERNARY AMINE SALTS AS PRODRUGS OF TRYPTAMINES” (priority 2023, published 2026).
Converted amounts (≈) assume the structure as drawn. Read-outs that look alike come from different tables or passages of the source.

Assays:
[1] = test system: serotonin receptors; settings: cited from earlier work
[2] = physchem; format: physicochemical
Method: The half-life of the compounds was measured in PBS (pH 6.5), simulated gastric fluid (SGF) with pepsin, and SGF without pepsin.

[3] = physchem; format: physicochemical; settings: FaSSIF, RT, 30 mM DMSO stock, value close to or above 300 μM may mean solubility at or above 300 μM
Method: Solubility measurements were taken according to the steps as followed:
2. Preparation of Stock Solution: The stock solution of test compounds was prepared in dimethyl sulfoxide (DMSO) at the concentration of 30 mM. The stock solution of control compound was prepared in DMSO at the concentration of 30 mM. Diclofenac sodium was used as positive control in the assay.
3. Procedures for Solubility Determination: 10 μL stock solution of each compound was placed in order into their proper 96-well rack, followed by adding 990 μL of FaSSIF into each vial of the cap-less Solubility Sample plate. This study was performed in duplicate. One stir stick was added to each vial and then vials were sealed using a molded PTDE/SIL 96-Well Plate Cover. The Solubility Sample plate was transferred to the Thermomixer Comfort plate shaker and incubated at RT for 2 hours with shaking at 1100 rpm. After 2 hours incubation, stir sticks were removed using a big magnet and all samples from the Solubility Sample plate were transferred into the filter plate. All the samples were filtered by using the Vacuum Manifold. An aliquot of 10 μL of the filtered samples were diluted with 980 μL of methanol and 10 μL of DMSO. The dilution factor might be changed according to the solubility value and the LC/MS signal response.
5. Sample Analysis: Samples were analyzed by LC-MS/MS.
[formula] • with DF as the dilution factor.

[4] = in vitro; format: in vitro ADME; settings: for Remaining Percentage / remaining at 0.25 h / remaining at 0.5 h / remaining at 1 h / remaining at 2 h: mouse plasma; for Remaining Percentage: 0 min; for remaining at 0.25 h: 15 min; for remaining at 0.25 h / remaining at 0.5 h / remaining at 1 h / remaining at 2 h: read-out: Remaining Percentage; for remaining at 0.5 h: 30 min; for remaining at 1 h: 60 min; for remaining at 2 h: 120 min; for half-life: mouse, plasma
[5] = only time points within the initial rate used where fast then slow disappearance, read-out: T1/2
[6] = PBS (pH 6.5), 30 min, read-out: Remaining Percentage
[7] = PBS (pH 6.5), 60 min, read-out: Remaining Percentage
[8] = PBS (pH 6.5), 120 min, read-out: Remaining Percentage
[9] = PBS (pH 6.5), 240 min, read-out: Remaining Percentage
[10] = PBS (pH 6.5), SGF with pepsin, SGF without pepsin
[11] = SGF with pepsin, 30 min, read-out: Remaining Percentage
[12] = SGF with pepsin, 60 min, read-out: Remaining Percentage
[13] = SGF with pepsin, 120 min, read-out: Remaining Percentage
[14] = SGF with pepsin, 240 min, read-out: Remaining Percentage
[15] = SGF with pepsin, if calculated T1/2 < 0, reported as 9999 min, read-out: T1/2
[16] = SGF without pepsin, 30 min, read-out: Remaining Percentage
[17] = SGF without pepsin, 60 min, read-out: Remaining Percentage
[18] = SGF without pepsin, 120 min, read-out: Remaining Percentage
[19] = SGF without pepsin, 240 min, read-out: Remaining Percentage
[20] = text statement of Table 4 value, read-out: half-life in mouse plasma
[21] = SGF without pepsin, if calculated T1/2 < 0, reported as 9999 min, read-out: T1/2

| Structure (SMILES) | activity at select serotonin receptors [1] | solubility kinetic at 2 h [3] [µM] | Remaining Percentage [4] [%] | remaining at 0.25 h [4] [%] | remaining at 0.5 h [4] [%] | remaining at 1 h [4] [%] | remaining at 2 h [4] [%] | half-life [4, 5] [min] | Remaining Percentage ([2]; SGF with pepsin, 0 min) [%] | remaining at 0.5 h [2, 11] [%] | remaining at 1 h [2, 12] [%] | remaining at 2 h [2, 13] [%] | remaining at 4 h [2, 14] [%] | Remaining Percentage ([2]; SGF without pepsin, 0 min) [%] | remaining at 0.5 h [2, 16] [%] | remaining at 1 h [2, 17] [%] | remaining at 2 h [2, 18] [%] | remaining at 4 h [2, 19] [%] | also measured |
| --- | --- | --- | --- | --- | --- | --- | --- | --- | --- | --- | --- | --- | --- | --- | --- | --- | --- | --- | --- |
| CN(C)CCc1c[nH]c2cccc(OP(=O)(O)O)c12 [psilocybin] | agonists or partial agonists |  |  |  |  |  |  |  |  |  |  |  |  |  |  |  |  |  |  |
| O=C(O)CCCc1ccc(N(CCCl)CCCl)cc1 [Chlorambucil, reference compound] |  |  |  |  |  |  |  |  |  |  |  |  |  |  |  |  |  |  | Remaining Percentage ([2]; pH 6.5): 100.00%; half-life ([2]; pbs, pH 6.5): 0.694 h; remaining at 0.5 h ([2]; pbs, pH 6.5): 59.4%; remaining at 1 h ([2]; pbs, pH 6.5): 37.1%; remaining at 2 h ([2]; pbs, pH 6.5): 13.6%; remaining at 4 h ([2]; pbs, pH 6.5): 1.83% |
| O=C(O)Cc1ccccc1Nc1c(Cl)cccc1Cl [Diclofenac, reference compound] |  | 276 (≈ 81.7 µg/mL) |  |  |  |  |  |  |  |  |  |  |  |  |  |  |  |  |  |
| CN(C)CCc1c[nH]c2ccccc12 [DMT, N, N-dimethyltryptamine] | agonists or partial agonists |  |  |  |  |  |  |  |  |  |  |  |  |  |  |  |  |  |  |
| CC(C)[N+](C)(CCOC(=O)C1c2ccccc2Oc2ccccc21)C(C)C [Propantheline, reference compound] |  |  | 100.00 | 86 | 67.2 | 35 | 8.48 | 32.8 |  |  |  |  |  |  |  |  |  |  |  |
| CC(C)(C)C(=O)OC[N+](C)(C)CCc1c[nH]c2ccccc12 [Compound 2, 2-(1H-indol-3-y1)-N,N-dimethy1-N-((pivaloyloxy)methyl)ethan-1-aminium] |  | 314 | 100.00 | 24.4 | 7.66 | 1.13 | 0 | 9.41 | 100.00 | 94.3 | 104 | 96.6 | 96.1 | 100.00 | 90.7 | 97.3 | 104 | 104 | Remaining Percentage ([2]; PBS (pH 6.5), 0 min): 100.00%; remaining at 0.5 h [2, 6]: 97.4%; remaining at 1 h [2, 7]: 101%; remaining at 2 h [2, 8]: 98.3%; remaining at 4 h [2, 9]: 95.3%; Stability in the environment of a stomach and in the presence of pepsin [2, 10]: does not degrade in the environment of a stomach nor in the presence of pepsin; half-life ([2]; PBS (pH 6.5), if calculated T1/2 < 0, reported as 9999 min, read-out: T1/2): 63.2 h; half-life [2, 15]: 88.8 h; half-life [4, 20]: 9.4 min |
| CN(C)CCc1c[nH]c2cccc(O)c12 [psilocin, 4-hydroxy-DMT] | agonists or partial agonists |  |  |  |  |  |  |  |  |  |  |  |  |  |  |  |  |  |  |
| CN(C)C(=O)OC[N+](C)(C)CCc1c[nH]c2ccccc12 [Compound 1, N-(((dimethylcarbamoyl)oxy)methyl)-2-(1H-indol-3-yl)-N,N-dimethylethan-1-aminium] |  | 290 | 100.00 | 97.5 | 92.6 | 90.2 | 58.3 | 156 | 100.00 | 101 | 100 | 97.2 | 108 | 100.00 | 105 | 100 | 104 | 100 | Remaining Percentage ([2]; PBS (pH 6.5), 0 min): 100.00%; remaining at 0.5 h [2, 6]: 97.7%; remaining at 1 h [2, 7]: 108%; remaining at 2 h [2, 8]: 107%; remaining at 4 h [2, 9]: 108%; Stability in the environment of a stomach and in the presence of pepsin [2, 10]: does not degrade in the environment of a stomach nor in the presence of pepsin; half-life [2, 21]: 261 h; half-life [4, 20]: 155 min |
| COc1ccc2[nH]cc(CCN(C)C)c2c1 [Compound 5-MeO-DMT, 5-methoxy-DMT] |  |  |  |  |  |  |  |  |  |  |  |  |  |  |  |  |  |  | activity at select serotonin receptors ([1]; bind select serotonin receptors in the active state): agonists or partial agonists |
| CC[C@H]1OC(=O)[C@H](C)[C@@H](O[C@H]2C[C@@](C)(OC)[C@@H](O)[C@H](C)O2)[C@H](C)[C@@H](O[C@@H]2O[C@H](C)C[C@H](N(C)C)[C@H]2O)[C@](C)(O)C[C@@H](C)C(=O)[C@H](C)[C@@H](O)[C@]1(C)O [Erythromycin, reference compound] |  |  |  |  |  |  |  |  | 100.00 | 52.6 | 30.5 | 9.74 | 1 | 100.00 | 54.5 | 29.1 | 9.44 | 1.05 | half-life [2, 15]: 0.6 h; half-life [2, 21]: 0.61 h |
